The numbers were not newly measured in patent US20260276655A1, “BIOMARKERS OF AMYOTROPHIC LATERAL SCLEROSIS AND USES THEREOF” (The Methodist Hospital, priority 2023, published 2026), which cites them from elsewhere.

The conditions of data set [1]: normal physiological conditions.
The test system of the next data set is ALS patients. The following applies: administered to ALS patients.

Molecules are shown by their SMILES.

For `CCCCCC(O)/C=C/C=O` (centres unmarked) [4-HNE, 4-hydroxynonenal], the half-life entry in data set [1] is on record as “less than 2 minutes”.
With `CO/N=C(\C(=O)N[C@@H]1C(=O)N2C(C(=O)O)=C(CSc3nc(=O)c(=O)[nH]n3C)CS[C@H]12)c1csc(N)n1` [ceftriaxone, (6R,7R)-7-[[(2Z)-2-(2-amino-1,3-thiazol-4-yl)-2-methoxyiminoacetyl]amino]-3-[(2-methyl-5,6-dioxo-1H-1,2,4-triazin-3-yl)sulfanylmethyl]-8-ox o-5-thia-1-azabicyclo[4.2.0]oct-2-ene-2-carboxylic acid], the “outcome of phase 3 clinical trial” value with ALS patients is recorded as “failed”.
